For 73 molecules, outcome, EC50 and IC50 results are on record in PubChem BioAssay AID179 (DTP/NCI, 2004).

The structures appear in SMILES notation. Activity calls are given as the source filed them.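 The calls were made as follows: active = compounds giving half or more protection of infected cells from virus-caused growth loss, again on retest; inactive = the rest.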

For this assay, the system named is CEM cells HIV-1 protection, formazan growth assay. Kind of assay: NCI AIDS Antiviral Assay. To be noted: for IC50: measured here: growth of uninfected CEM cells. The method in brief: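 Protection of CEM cells against HIV-1 measured as cell growth via soluble formazan read-out, with five concentrations tested on both infected and uninfected cells; failure to protect may reflect toxicity.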

Turning to `Cc1ccc2c(n1)C(N1CCCCC1)=CC(=O)C2=O`, the outcome was inactive. Consider `O=S(=O)(SCc1ccccc1)C(c1ccccc1)c1ccccc1`, for which the EC50 was > 105 µM and the IC50 was found to be 6.31 µM. Taken in the same sequence, the figures for `COc1cc(C=O)c(-c2cc(OC)c(OC)cc2C=O)cc1OC` were > 44.7 µM and > 44.7 µM.

Regarding `N#CC(C#N)=Cc1ccccc1[N+](=O)[O-]`, the EC50 was > 302 µM and the IC50 turned out to be 15.1 µM.

For the molecule `CN(OC(=O)CC(=O)c1ccccc1)C(=O)Cc1ccccc1`, the EC50 was > 251 µM and the IC50 was determined as 191 µM. In the case of `COC(=O)c1[nH]c(=S)[nH]c(=O)c1-c1ccc(Cl)cc1`, the EC50 was 251 µM and the IC50 is 603 µM.

`CCOC(=O)CCC1(C(=O)OCC)CCCCC1=O` (stereo not given): the EC50 is > 251 µM and the IC50 is > 251 µM. On to `Sc1nc2ccccc2s1.Sc1nc2ccccc2s1.Sc1nc2ccccc2s1.Sc1nc2ccccc2s1.[Cl][Rh][Cl]`, for which the EC50 was > 151 µM and the IC50 was 2.95 µM. In the case of `CNc1ccc(N=O)cc1`, the EC50 was > 200 µM and the 50% inhibitory concentration (IC50) amounted to 1.07 µM.

As to `CC(C)(C)OC(=O)N1N=NC2C3OC(CC3=O)C21` (stereo not given), the EC50 is > 708 µM and the IC50 is 355 µM.

`O=C(NCCCCCCNC(=O)n1cc(F)c(=O)[nH]c1=O)NC1C(O)OC(CO)C(O)C1O` (stereo not given): the outcome was inactive. Turning to `CN(C)c1nc(N(C)C)nc(N(C)CN(C)c2ccc(Cl)cc2)n1`, the EC50 is > 50.1 µM and the IC50 was > 50.1 µM. As to `Cc1cn(C2CC(Sc3cn[nH]n3)C(CO)O2)c(=O)[nH]c1=O` (stereo not given), the EC50 is > 380 µM and the IC50 worked out at 75.9 µM.

For `O=c1cc(NNc2ccccc2F)[nH]c(=O)[nH]1`, the EC50 is > 200 µM and the IC50 came to 1.78 µM.

On to `CC(C)(Oc1ccccc1)C(=O)Sc1c(-c2ccccc2)c(=O)n(-c2ccccc2)c(=S)n1-c1ccccc1`, for which the EC50 was > 200 µM and the IC50 stood at 1.35 µM. Taken in the same sequence, the figures for `CCCCCCCCCCCCSC(=S)c1c(C)[nH]n(CCCCCCCCCCCC)c1=O` were > 51.3 µM and > 51.3 µM. On to `CCCCCC(=Nc1n[nH]nc1C(N)=O)OCC`, for which the EC50 is > 200 µM and the IC50 was > 200 µM. In the case of `CCNC1CC(C(C)(C)NCC)CC=C1C` (stereo not given), the EC50 is > 224 µM and the IC50 is > 224 µM. For the molecule `O=[N+]([O-])c1cccc2c(N3CC3)cnnc12`, the result was inactive. With `O=c1[nH]nc(Cc2ccccc2)n1C1CCCC1`, the EC50 is > 200 µM and the IC50 was > 200 µM.

For the molecule `O=C1Oc2ccccc2C(=O)/C1=C1\SSC(c2ccccc2)=C1c1ccccc1`, the EC50 was > 200 µM and the IC50 was > 200 µM.

As to `Cc1cc2ccccc2oc(=O)/c1=N\Nc1ccccc1`, the EC50 was > 200 µM and the IC50 came to 34.7 µM.

Turning to `COc1ccc(NC(=O)CC(=O)N2N=C(N(CCC#N)c3ccc(Cl)cc3)CC2c2ccccc2)cc1` (stereo not given), the EC50 is > 36.3 µM and the IC50 was > 36.3 µM. For `COc1ccc([C@@H]2CC(=O)N2)cc1`, the EC50 was > 200 µM and the IC50 is > 200 µM.

In the case of `COC(=O)CC1NC(=O)C1C(C)(OC)OC` (stereo not given), the EC50 is 191 µM and the IC50 was found to be 251 µM.

In the case of `CCOC(=O)CCc1c(C)c2c(OC)cc(OC)cc2oc1=O`, the result was inactive.

With `COc1ccc(C2OCC3OC(n4cc(C)c(=O)[nH]c4=O)CC3N2O)cc1` (stereo not given), the EC50 is > 200 µM and the IC50 is > 200 µM.

For the molecule `CN(C)N=Nc1ccc(/C=C2/C=Cc3ccccc32)cc1`, the EC50 was > 49 µM and the IC50 is > 49 µM. `O=C1CC[C@H]2[C@@H]3N1c1ccccc1[C@@]31CCN3C/C(=C/CBr)[C@@H]2C[C@H]31`: the EC50 was > 75.9 µM and the IC50 was > 75.9 µM. As to `Nn1c(-c2ccccc2)n[nH]c1=O`, the EC50 is > 200 µM and the IC50 was > 200 µM. In the case of `O=C(N/N=C(/CCN1CCCC1)CC(c1ccccc1)c1c(O)c2ccccc2oc1=O)c1ccncc1` (stereo not given), the EC50 was > 34.7 µM. On to `[N-]=[N+]=NC1=NNC2(C(=O)N1)c1ccccc1-c1ccccc12`, for which the EC50 is > 100 µM and the IC50 is > 100 µM. On to `O=C1/C(=C/c2ccccc2)CCCC12C(c1ccccc1)N2Cc1ccccc1` (stereo not given), for which the EC50 is > 200 µM and the IC50 was determined as 7.41 µM. The like results for `CN(C)c1ccc(C(c2c(O)c3ccccc3oc2=O)c2c(O)c3ccccc3oc2=O)cc1` were, in that order, > 200 µM and 27.5 µM. Regarding `CCN1CCC(O)(/C=C/c2cccc(C)c2)C(C(=O)/C=C/c2cccc(C)c2)C1` (stereo not given), the EC50 is > 200 µM and the IC50 stood at 3.55 µM. For the molecule `COC(=O)c1ccc(CCC2=CC(=O)C=CC2=O)cc1`, the EC50 is > 200 µM and the IC50 came to 7.59 µM.

For `CC[C@H]1CN2CCc3cc(OC)c(OC)cc3[C@@H]2C[C@@H]1C[C@H]1NCCc2cc(O)c(OC)cc21`, the outcome was inactive. On to `Cc1ccc(N=NN(C)C)cc1NC(=O)NCC(=O)OC(C)(C)C`, for which the EC50 is > 200 µM and the half-inhibitory concentration (IC50) worked out at 107 µM.

In the case of `O=C1[C@H]2ON(c3ccccc3)C(c3ccc([N+](=O)[O-])cc3)[C@H]2C(=O)N1c1ccc(Cc2ccc(N3C(=O)[C@@H]4ON(c5ccccc5)C(c5ccc([N+](=O)[O-])cc5)[C@@H]4C3=O)cc2)cc1` (stereo not given in full), the EC50 is > 8.51 µM and the IC50 is > 8.51 µM. For `N#CS/C(C(Cl)=C(Cl)Cl)=C(/Cl)[N+](=O)[O-]`, the EC50 is > 200 µM and the IC50 was 8.32 µM.

In the case of `Cc1cc(NS(=O)(=O)c2ccc(Nc3c4ccccc4nc4c(C(=O)NC(CO)(CO)CO)cccc34)cc2)no1`, the EC50 was > 200 µM and the IC50 turned out to be 11.2 µM.

Turning to `O=C1CC2(CCC3=C(O2)c2ccccc2NC(=O)C3)C(=O)c2ccccc2N1` (stereo not given), the EC50 was > 69.2 µM and the IC50 is > 69.2 µM.

`COc1cc(O)c2c(c1)O[C@@H]1OCC[C@H]21`: the EC50 was > 1200 µM and the IC50 was 871 µM.

With `CSc1nc(C)c(C(=O)CCN2CCOCC2)s1`, the EC50 was > 200 µM and the IC50 is 10 µM. As for `COC(=O)C(=O)CC(=O)CCn1[nH]c(=O)c(Cl)c(Cl)c1=O`, the EC50 was > 389 µM and the IC50 was 295 µM. Taken in the same sequence, the figures for `CCSC(CCC(NC(C)=O)C(=O)O)SCC` (stereo not given) were > 200 µM and > 200 µM. As to `CC1=C(C)CC2(CC1)C(=O)NC(=O)NC2=O`, the EC50 was > 832 µM and the IC50 is > 832 µM.

On to `O=C1C=C(N2CCCC2)C=C(N2CCCC2)C1`, for which the EC50 was > 155 µM and the IC50 was 81.3 µM. Take `CCC1(CC)COP(=S)(SCCOC(=O)c2ccccc2)OC1`: the EC50 was > 200 µM and the half-maximal inhibitory concentration (IC50) came to 46.8 µM. In the case of `Clc1cc2nc(C3CCCCO3)[nH]c2cc1Cl` (stereo not given), the EC50 was > 200 µM and the IC50 is 10.2 µM. As for `O=c1c(=O)c2cc(O)ccc12`, the EC50 was > 1700 µM and the IC50 was 282 µM.

For `Cc1c2oc(=O)c(C#N)cc2c2ccccn12`, the EC50 is > 200 µM and the IC50 was > 200 µM. Consider `C[n+]1c2ccccc2n2c3ccccc3c(NCc3ccco3)c(C#N)c21`, for which the EC50 is > 20 µM and the IC50 was determined as 1.48 µM. Regarding `CCCC/C=C(/CCCBr)[Si](C)(C)C`, the EC50 was > 339 µM and the IC50 is > 339 µM. On to `Cc1cc(C)nc(NS(=O)(=O)c2ccc(NC(=O)c3cccc4c(Nc5ccc(S(=O)(=O)N=C(N)N)cc5)c5ccc(Cl)cc5nc34)cc2)n1`, for which the EC50 is > 49 µM and the half-inhibitory concentration (IC50) was > 49 µM. As for `CC(C)CCS(=O)(=O)O`, the EC50 is > 200 µM and the IC50 is > 200 µM.

Take `CCOC(CCc1c(C)nc(NC(C)=O)[nH]c1=O)OCC`: the EC50 was > 200 µM and the IC50 is > 200 µM. Consider `CC(=O)OC(C)C(=O)C1c2cccc(O)c2C(=O)c2c(O)cc(C)cc21` (stereo not given), for which the EC50 is > 191 µM and the IC50 was 3.24 µM. The like results for `Cc1cn(C2OC(COC(=O)c3ccccc3)C(OC(=O)c3ccccc3)C2I)c(=O)[nH]c1=O` (stereo not given) were, in that order, > 200 µM and 37.2 µM. Taken in the same sequence, the figures for `NC1=NN(c2ccccc2)C(=O)C1C(=O)C(=O)Nc1ccc(Cl)cc1` (stereo not given) were > 347 µM and 251 µM. As for `O=C(OCc1ccccc1)N(CCCCN(CCCNCc1ccccc1)C(=O)OCc1ccccc1)CCCNCc1ccccc1`, the EC50 is > 2 µM and the IC50 was 0.871 µM. Take `Cc1cc(S(=O)(=O)Nc2n[nH]c(Nc3ccccc3)n2)c(S)cc1Cl`: the EC50 was 170 µM and the IC50 is 275 µM.

As to `C/C(CC(=O)Nc1cc(C)ccc1C)=N\NC(=O)c1ccncc1`, the EC50 was > 398 µM and the IC50 worked out at 20.9 µM.

Consider `Cc1nn2c(c1C#N)NNc1c-2sc(=N)nnc1=O`, for which the EC50 is 31.6 µM and the IC50 came to 43.7 µM. `CCOc1ccc(C(C2=C(O)c3ccccc3C(=O)C2=O)C2=C(O)c3ccccc3C(=O)C2=O)cc1OC`: the EC50 was > 200 µM and the IC50 amounted to 29.5 µM. `O=c1[nH]c(=O)n(C2OC(CO)C(O)C2O)c2ccsc12` (stereo not given): the EC50 is > 200 µM and the IC50 is > 200 µM. Turning to `CC(C)CC1=CC(=O)CN(CCc2c[nH]c3ccccc23)C1`, the EC50 was > 240 µM and the IC50 was 126 µM.

For `Nc1nc(Cl)cc(N=Nc2ccccc2)n1`, the EC50 was > 200 µM and the IC50 amounted to 11.5 µM. Taken in the same sequence, the figures for `CC1(C)CC(=O)C(/C=N/C(=S)Nc2ccc(S(N)(=O)=O)cc2)=C(O)C1` were > 200 µM and > 200 µM.

Turning to `O=C1CC(=O)NC(=NN2C(=O)/C(=C/c3ccc(Cl)c(Cl)c3)N=C2c2ccccc2)N1`, the EC50 was > 200 µM and the IC50 came out at 21.9 µM. For the molecule `C[C@]12Cc3cn[nH]c3C(=O)C1CC[C@@H]1C2CC[C@@]2(C)C1CC[C@]2(C)O` (stereo not given in full), the EC50 is > 38 µM and the IC50 was > 38 µM.

As for `CC(C)COC(=N)c1ccccc1C1(O)CCCCC1`, the EC50 was > 200 µM and the IC50 came to 117 µM. For the molecule `COc1ccc(CCN(C)CCCC(C#N)(c2ccc(OC)c(OC)c2)C(C)C)cc1OC` (stereo not given), the EC50 was > 200 µM and the IC50 is > 200 µM.

Usually EC50 stands for the midpoint of the concentration-response curve. What is called IC50 is the concentration that inhibits the measured activity by half.
